Data set [1] in a line: Acute toxicity in mice bearing extremely large tumors.
Data set [2] has as its system MDA-MB-435 human breast carcinoma cells. Format: cell-based. The following applies: for cell killing: agents not removed after 30 min, 24 hr. Here is the method: MDA-MB-435 human breast carcinoma cells were plated at 1×10^5 cells/well in 96 well plates. Cells were incubated with increasing amounts of doxorubicin, the doxorubicin/[…] (SEQ ID NO: 1) conjugate, or the doxorubicin/GACVFSIAHECGA (SEQ ID NO: 19; control) conjugate (0.1 to 10 μg/well of doxorubicin-equivalent) for either 30 min or overnight. […] The number of surviving cells was determined at 24hours with crystal violet staining (see Koivunen et al., supra, 1994).

In data set [3] the test system is MDA-MB-435 breast carcinoma. Put plainly: Tumor therapy of breast tumor bearing mice with doxorubicin/peptide conjugates. As to conditions: for gross examination of tumors (skin ulceration, tumor necrosis): 5 μg doxorubicin equivalent; for effect on tumor growth: relative to treatment with the vehicle, alone. Format: in vivo, BALB/c nu/nu mice. Here is the method:
Female 2-month old BALB/c nu/nu mice (Harlan Sprague Dawley; San Diego Calif.) were used for these studies and were cared for according to the Burnham Institute animal facility guidelines. MDA-MB-435 breast carcinoma cells (Price et al., Cancer Res. 50:717-721 (1993)) were injected in the mammary fat pad of the nude mice and tumor growth was monitored (Pasqualini et al., supra, 1997). Tumors were allowed to grow to a size of about 1 cm^3 (about 5% of the mouse's body weight) before starting the treatment experiments, except for the toxicity experiments as discussed below.
Weekly doxorubicin/peptide conjugate or control treatments (5 μg/mouse/week of doxorubicin-equivalent) were administered intravenously. In some experiments, as indicated, a dose of 30 μg/mouse was administered every 3 weeks. Treatment with doxorubicin, alone, is referred to as “dox control” and treatment with doxorubicin conjugated to the non-tumor homing control peptide, […] As an additional control, in some experiments the tumor homing peptide was mixed with doxorubicin, without linking, and the mixture was administered to tumor bearing mice. Such treatment produced results that were not statistically different from those obtained with the above described dox controls.
Mice were anesthetized with a tribromoethanol-based anesthetic mixture (AVERTIN; Papaioannou and Fox, Lab. Anim. 43:189-192 (1993)) before each treatment. Anesthetization facilitated the tail vein injections (final volume, 200 μl) and allowed precise serial three dimensional tumor size measurements. Tumor volume calculations were based on the equation for the volume of an ovaloid: V= 4/3 (Πabc), where a, b, and c are ½ of the measured diameters in each of the three dimensions.

The subject of data set [4] is breast tumor. Description: Competition of phage tumor homing by coinjection of free peptide. Format: in vivo, mice. As to conditions: for effect of coinjected free peptide on homing of CDCRGDCFC phage: coinjection with CDCRGDCFC (RGD) phage; for effect of co-injected peptide on accumulation of NGR phage in breast carcinoma xenografts: phage expressing CNGRCVSGCAGRC, NGRAHA or CVLNGRMEC
An excerpt:
Selective homing can be distinguished from nonspecific binding, however, by detecting differences in the abilities of different individual phage to home to a tumor. For example, selective homing can be identified by combining a putative tumor homing molecule such as a peptide expressed on a phage with a large excess of non-infective phage or with about a five-fold excess of phage expressing unselected peptides, injecting the mixture into a subject and collecting a sample of the tumor. […] In addition, nonspecific localization can be distinguished from selective homing by performing competition experiments using, for example, phage expressing a putative tumor homing peptide in combination with an excess amount of the “free” peptide (Example IV).
The various peptides, including RGD- and NGR-containing peptides, generally were bound to the tumor blood vessels. The minimal cyclic NGR peptide, CNGRC (SEQ ID NO: 8), was synthesized based on the CNGRCVSGCAGRC (SEQ ID NO: 3) sequence. When the CNGRC (SEQ ID NO: 8) peptide was co-injected with phage expressing either CNGRCVSGCAGRC (SEQ ID NO: 3), NGRAHA (SEQ ID NO: 6) or CVLNGRMEC (SEQ ID NO: 7), accumulation of the phage in the breast carcinoma xenografts was inhibited. […] (SEQ ID NO: 1) peptide, even when administered in amounts up to ten times higher than those that inhibited the homing of the NGR phage. In comparison, the […]

A further data set deals with human αv-integrins. As to conditions: cited from earlier work.
A further data set has as its system B16B15b mouse melanoma. Description: In vivo panning against a melanoma tumor. Further details: species or system mice. As to conditions: 89 cloned phage recovered from B16B15b tumors after three rounds. On the procedure:
Tumors were transplanted into mice as described in Examples II and III, below. A mixture of phage libraries containing 1×10^9 to 1×10^14 TU was diluted in 200 μl DMEM and injected into the tail vein of anesthetized mice (AVERTIN (0.015 ml/g); see U.S. Pat. No. 5,622,699; Pasqualini and Ruoslahti, supra, 1996). After 1-4 minutes, mice were snap frozen in liquid nitrogen. To recover the phage, carcasses were partially thawed at room temperature for 1 hr, tumors and control orqans were collected and weighed, then were ground in 1 ml DMEM-PI (DMEM containing protease inhibitors (PI); phenylmethylsulfonyl fluoride (PMSF; 1 mM), aprotinin (20 μg/ml), leupeptin (1 μg/ml)).
Individual colonies containing phage recovered from a tumor were grown for 16 hr in 5 ml NZY/tet. The bacterial cultures obtained from the individual colonies were pooled and the phage were purified and re-injected into mice as described above for a second round of in vivo panning. In general, a third round of panning also was performed. Phage DNA was purified from individual bacterial colonies obtained from the final round of in vivo panning and the DNA sequences encoding the peptides expressed by selected phage were determined (see Koivunen et al., supra, 1994b).
Mice bearing a melanoma were produced by implantation of B16B15b mouse melanoma cells, which produce highly vascularized tumors. […]

The subject of data set [5] is Human 435 breast carcinoma tumor. Description: In vivo targeting of phage expressing a peptide to a tumor (phage quantitated in organs). Further details: species or system mice. The following applies: mouse melanoma, human Kaposi's sarcoma xenograft. Here is the method: Human 435 breast carcinoma cells were inoculated into the mammary fat pad of nude mice. When the tumors attained a diameter of about 1 cm, phage expressing a specific RGD-containing peptide were administered to the tumor bearing mouse. Similar results
1×10^9 phage expressing the RGD-containing peptide, […] (SEQ ID NO: 1; see, Koivunen et al., supra, 1995) or control (insertless) phage were injected intravenously (iv) into the mice and allowed to circulate for 4 min. The mice then were snap frozen or perfused through the heart while under anesthesia, and various organs, including tumor, brain and kidney, were removed and the phage present in the organs was quantitated (see U.S. Pat. No. 5,622,699; Pasqualini and Ruoslahti, supra, 1996).
Approximately 2-3 times more phage expressing the […] (SEQ ID NO: 1) peptide were detected in the breast tumor as compared to brain and kidney, indicating the […] […] In a parallel study, unselected phage, which express various, diverse peptides, were injected into tumor-bearing mice and various organs were examined for the presence of phage. Far more phage were present in kidney and, to a lesser extent, brain, as compared to the tumor. Thus, the 80-fold more RGD-expressing phage than unselected phage concentrated in the tumor.

Data set [6] deals with breast tumor. Description: Viability of tumor cells obtained from tumors of treated mice. Format: in vivo. As to conditions: 30 μg equivalent iv, tumors removed after five days, cells counted 24 hours and 7 days after plating. On the procedure: In addition, the viability of tumor cells obtained from tumors of mice treated with a tumor homing peptide/doxorubicin conjugate was compared to that of tumors from mice treated with free doxorubicin. In these experiments, breast tumor bearing mice were size matched with regard to the tumors, then treated intravenously with 30 μg equivalent of doxorubicin/CDCRGDCFC (SEQ ID NO: 1) or of free doxorubicin. Five days after treatment, the mice were euthanized and the tumors were removed. The tumor pairs were weighed and ground and the cell suspensions were plated (2 g tumor tissue per 150 mm plate).
Cell numbers were determined at 24 hours and 7 days after plating. Viability of tumor cells from the tumors of mice receiving the doxorubicin/CDCRGDCFC (SEQ ID NO: 1) conjugate was about 3 fold less than cells from tumors of mice treated with the free doxorubicin.

Setting [7] is: 200 μg/mouse, tumors about 25% of body weight.
Setting [8] is: 30 min exposure, 0.1 to 10 μg/well doxorubicin-equivalent, survivors counted at 24 hours.
Where [9] appears, read: 5 μg/mouse/week doxorubicin-equivalent iv.
[10] abbreviates: 5 μg/mouse/week iv, t test, p<0.0001.

Like-named read-outs stand apart in the source and are kept apart here. No end group written: not given here.

Turning to `COc1cccc2c1C(=O)c1c(O)c3c(c(O)c1C2=O)C[C@@](O)(C(=O)CO)C[C@@H]3O[C@H]1C[C@H](N)[C@H](O)[C@H](C)O1` [doxorubicin, reference compound], the “time to death after treatment” value in data set [1] (setting [7]) was at most 48 h. In data set [2] (setting [8]), the cell death result was “cell death was present only in the cultures treated with the doxorubicin/[…]”. Also, in data set [2], the cell killing result was “the cells were killed by all of the treatments”. Also, in data set [3], the “gross examination of tumors (skin ulceration, tumor necrosis)” value (from here on “gross examination of tumors”) is “no such signs were observed” and the “effect on tumor growth” value was “essentially no effect on tumor growth”.

As for ACDCRGDCFCG, in the data set with breast tumor [4] (500 μg free peptide coinjected with phage expressing CDCRGDCFC), the “effect of coinjected free peptide on amount of RGD phage in the tumor” value is recorded as “reduced the amount of phage in the tumor by about tenfold”.

In the case of CDCRGDCFC, in the data set on breast tumor [4], the “effect of coinjected free peptide on homing of CDCRGDCFC phage” value was “greatly reduced tumor homing of the RGD phage” and the “effect of co-injected peptide on accumulation of NGR phage in breast carcinoma xenografts” value is “partially inhibited”. In addition, the “amount needed to inhibit homing of NGR phage relative to CNGRC peptide” value in the data set with breast tumor [4] (higher than that of the CNGRC peptide) is 5 to 10 fold. Moreover, the “binding to human αv-integrins” value in the data set on human αv-integrins is “binds to human αv-integrins”.

Turning to CGSLVRC, in the data set on breast tumor [4] (mouse, in vivo), the “effect of coadministered free peptide on homing of CGSLVRC phage” value is on record as “inhibited”.

Consider CLSGSLSC, for which the “share of the clones sequenced” value in the data set with B16B15b mouse melanoma is 52%. Besides, the “tumor homing of phage/peptide” value in data set [5] is “also homed to a breast tumor and to Kaposi's sarcoma”.

CNGRC: in the data set on breast tumor [4], the “effect of coinjected free peptide on homing of CDCRGDCFC phage” value was “did not inhibit” and the “effect of co-injected peptide on accumulation of NGR phage in breast carcinoma xenografts” value is “inhibited”.

As to CNGRCVSGCAGRC, in data set [5], the “tumor homing of phage/peptide” value was “also homed in vivo to a melanoma and to a Kaposi's sarcoma, but not to nontumor tissues”.

With GRGESP [reference compound], in the data set with breast tumor [4] (500 μg free peptide coinjected with phage expressing […]), the “effect of coinjected free peptide on amount of RGD phage in the tumor” value was “essentially had no effect”.

Regarding WGTGLC, the “share of the clones sequenced” value in the data set with B16B15b mouse melanoma came out at 25%.

For “doxorubicin/CDCRGDCFC: doxorubicin coupled by EDC/NHS to the tumor homing peptide CDCRGDCFC (SEQ ID NO: 1) (cysteine pairing not given here; also: doxorubicin conjugate via EDC/NHS, site not given here)”, in data set [1] (setting [7]), the survival after treatment entry is “survived for longer than one week”. For the same compound, the cell death result in data set [2] (setting [8]) is “cell death was present”. Further, the cell killing result in data set [2] is on record as “the cells were killed by all of the treatments”. Moreover, in the data set with breast tumor [6], the “viability of tumor cells, fold less than after free doxorubicin” value is given as “about 3 fold”. The “gross examination of tumors” value in data set [3] was “marked skin ulceration and tumor necrosis”. For the same compound, in data set [3] (setting [9]), the survival result is “survived beyond the time when the dox control and conjugate control mice had died”; the “tumor size compared with control groups” value was “significantly smaller tumors”. In data set [3] (setting [10]), the “pulmonary metastasis vs dox control” value is “a lower incidence of pulmonary metastasis and fewer metastatic lesions”; the “spread to regional lymph nodes vs dox control” value is “less spread to regional lymph nodes”. Moreover, the “histopathological analysis of tumor vasculature” value in data set [3] (compared to the dox control group) is “pronounced destruction of the vasculature in the tumors”. The “time remaining alive after dox control and conjugate control mice had died” value in data set [3] (dose escalation, 30 μg/mouse every three weeks for three cycles) is “more than 6 months”.

As to “doxorubicin/CNGRC (cysteine pairing not given here; also: doxorubicin conjugate)”, in data set [1] (mouse, in vivo), the “toxicity relative to free doxorubicin” value is given as “less toxic than free doxorubicin”. Also, in data set [3] (setting [9]), the survival entry is “marked effect on survival” and the “tumor size compared with control groups” value was “significantly smaller”. For the same compound, the “effect on tumor growth” value in data set [3] is on record as “almost completely suppressed tumor growth”.

“doxorubicin/GACVFSIAHECGA: doxorubicin conjugated to the non-tumor homing control peptide GACVFSIAHECGA (SEQ ID NO: 19) (cysteine pairing not given here; also: doxorubicin conjugate) [reference compound]”: in data set [2], the cell death entry is “cell death was present only in the cultures treated with the doxorubicin/[…]” and the cell killing result is “the cells were killed by all of the treatments”. Also, in data set [3], the “gross examination of tumors” value was “no such signs were observed” and the “effect on tumor growth” value is “essentially no effect on tumor growth”. In addition, the “results as compared to dox control groups” value in data set [3] (setting [9]) is reported as “not significantly different”.
